The test system of test [1] is β-catenin. Briefly: Detection of β-catenin phosphorylation in T cells. In kind it is cell-based, mouse. Conditions: CCL2 1 ng/ml 10 minutes before activating anti-CD151 5 minutes, FIG. 4F. How it is done: 1×10^7 T cells were suspended in 1 ml RPMI medium containing 10% (v/v) FCS. The cells were stimulated with either 2 μg/ml anti-CD151 (Santa Cruz) or an isotype control antibody IgG rabbit anti mouse (ImmunoResearch Labs.inc). Thereafter, the cells were immediately placed at 37° C. for 5 minutes. Immediately after stimulation, the cells were fast frozen in liquid N2 and were lysed in lysis buffer containing: 25 mM Tris, pH 7.4; 2 mM Vanadate; 75 mM glycophosphate, pH 7.2; 2 mM EDTA; 2 mM EGTA; 10 mM NaPPi; and 0.5% NP-40, in the presence of the following protease inhibitors: 10 mg/ml Leupeptin; 10 mg/ml aprotinin; 10 mg/ml pepstatin; 10 mg/ml chymostatin (Roche); 1 mM PMSF (Sigma); and 20 mM N-etheyl-melamide (Sigma).
Protein G-Sepharose beads (GE Healthcare) were conjugated to Tyr (P) monoclonal antibody (Santa Cruz) for 2 hours at 4° C., followed by three washes in phosphate-buffered saline. Beads were added to the cell lysates and proteins were immunoprecipitated overnight. The protein G-bound material was washed three times with phosphate-buffered saline containing 0.1% SDS and 0.5% Nonidet P-40. Immunoprecipitates were separated by SDS-PAGE. The protein bands were transferred onto a nitrocellulose membrane and probed with anti β-cat (BD Transduction Laboratories) followed by horseradish peroxidase-conjugated anti-mouse IgG (Jackson ImmunoResearch Labs, West Grove, Pa.). […]

The test system of test [2] is CD151/VLA4 complex. In words: Co-immunoprecipitation of CD151 with β1 integrin (CD151/VLA4 complex). The class given is cell-based, mouse. How it is done:
(§1) 1×10^7 T cells from control C57BL/6 or CCR2−/− mice were suspended in 1 ml RPMI medium containing 10% (v/v) FCS. Next, 1 ng/ml of CCL2 (PeproTech) was added to half of the tubes (the other half was kept as a control), and the tubes were placed at 37° C. for different time periods (see the results section below). After incubation, the cells were washed and used for the different experiments.
Stimulated frozen cells were lysed in lysis buffer containing: 25 mM Tris, pH 7.4; 2 mM Vanadate; 75 mM glycophosphate, pH 7.2; 2 mM EDTA; 2 mM EGTA; 10 mM NaPPi; and 0.5% NP-40, in the presence of the following protease inhibitors: 10 mg/ml Leupeptin; 10 mg/ml aprotinin; 10 mg/ml pepstatin; 10 mg/ml chymostatin (Roche); 1 mM PMSF (Sigma); and 20 mM N-etheyl-melamide (Sigma).
Protein G-Sepharose beads (GE Healthcare) were conjugated to Tyr (P) monoclonal antibody (Santa Cruz) or to anti-CD151 (Santa Cruz) for 2 hours at 4° C. followed by three washes in phosphate-buffered saline. Beads were added to the cell lysates and proteins were immunoprecipitated overnight. The protein G-bound material was washed three times with phosphate-buffered saline containing 0.1% SDS and 0.5% Nonidet P-40. Immunoprecipitates were separated by SDS-PAGE. […]

The subject of test [3] is CD151. In words: CD151 mRNA expression in T cells (DNA chip array, RT-PCR, real-time PCR). The class given is cell-based, mouse. How it is done:
as §1
Total RNA was isolated from cells using the Tri reagent kit (Molecular Research Center, Inc). Reverse transcription was carried out using Superscript II RT (Gibco-BRL) and the primers: […]
To obtain differential expression data of the T cells following CCL2 incubation, the differences between mRNA levels in this cell population were identified by screening mouse DNA chip arrays using the Affymatrix genechip expression analysis system (mouse 430 A2.0). The system consisted of two parameters: probe array and RNA target. Probe array included approximately 20,000 murine genes and ESTs. Each gene or EST was analyzed with approximately 20 pairs of specific, unique 25 mer-oligonucleotides probe. Each probe type was located in a specific area called probe cell. Each probe cell contained millions of copies of a given probe. All probe cells together made up the probe array (Affymetrix Genechip Expression Technical Manual). RNA from CCL2 treated T cells and from control T cells was converted to cDNA and then in vitro transcribed while labeled with biotin (see methods for RNA isolation and cells separation). The target RNA was hybridized to the probe array. The hybridized probe array was stained with streptavidin phycoerythrin conjugate and scanned by the GeneArray scanner. The amount of light emitted was proportional to the bound target at each location on the probe array. The two populations were compared according to the hybridization intensity in each cell.
mRNA levels of actin and CD151 were analyzed by quantitative real-time RT-PCR using a Light-Cycler instrument (Roche Diagnostics, Mannheim, Germany). […]
A general note: In qPCR the cycle at which signal appears reflects the starting amount.

Test [4] concerns LFA-1. In words: Laminar flow adhesion assay: LFA-1 mediated adhesion to ICAM-1 triggered by CCL21. In kind it is cell-based. The note with it: mouse T cells pre-treated, FIGS. 4G-J. How it is done:
Purified ICAM-1-Fc (R&D Systems, Minneapolis, Minn.) were coated alone or with mouse CCL21 (R&D Systems) on polystyrene plates, as previously described [Grabovsky V et al. (2000) J Exp Med. 192, 495-506; Sigal A et al. (2000) J. Immunol. 165, 442-452]. The polystyrene plates were each assembled on the lower wall of the flow chamber as previously described [Feigelson S W et al. (2001) J Biol. Chem. 276, 13891-13901]. All flow experiments were conducted at 37° C.
Mouse T cells were purified and re-suspended in HBSS++ (HBSS, Mg^2+Ca^2+) with ICAM-1-Fc or mCCL2 for 1 hr. Cells were then perfused through the flow chamber at low shear stress (0.5-0.75 dyn/cm2) for 2 min. Tethers were defined as transient or rolling if cells attached briefly (less than 2 seconds) to the substrate, and as arrests if cells immediately arrested and remained stationary for at least 5 seconds of continuous flow. To assess adhesion strengthening, post arrest resistance to detachment over time was determined. Accumulated cells were subjected to a shear stress of 5 dyn/cm^2 for 10 minutes. At the indicated time points, the number of cells that remained bound was expressed relative to T cell population originally accumulated in the first 2 minutes of the assay.

For test [5] the following is noted: picomolar circulating CCL2; Flaishon et al. 2008, WO 2008/012796; cited from earlier work.
Test [6] deals with T lymphocyte. The note with it: picomolar levels of CCL2; Flaishon et al. 2008, WO 2008/012796; cited from earlier work.
In test [7] the test system is CD151. In words: CD151 cell surface expression on T cells (flow cytometry). In kind it is cell-based, mouse. The note with it: CCL2 1 ng/ml. How it is done:
Freshly isolated T cells were pre-incubated in the presence or absence of CCL2 (1 ng/ml, PeproTech) for several time periods (see the results section below). After incubation the cells were double stained with anti-CD3 (Pharmagene) and anti-CD151 (Santa Cruz) and the secondary antibody alexa goat anti rabbit (Invitrogene) was used. Expression of the stained proteins was analyzed by flow cytometry.
For orientation: In flow cytometry, cells or beads pass a laser one at a time.

The subject of test [8] is T cells. In words: Cytoskeleton rearrangement: CCL21-induced actin polymerization (FITC-phalloidin, flow cytometry). The class given is cell-based, mouse. The procedure:
T cells were pre-incubated in the presence or absence of CCL2 (1 ng/ml, PeproTech) for 1 hour and were then stimulated with CCL21 (SLC, 100 ng/ml, PeproTech). Cells were fixed by 3.7% formaldehyde solution (Merck) and cytoskeleton rearrangement was analyzed by flow cytometry following staining with fluorescein isothiocyanate (FITC)-phalloidin, as was previously described [Flaishon et al., J. Biol. Chem. (2001) 276: 46701-46706].
For CD151 activation leading to cytoskeletal rearrangement-T cells were pretreated with either 2 μg/ml of activating antibody specific for the extracellular domain of CD151 (Santa Cruz) or with an isotype control antibody IgG rabbit anti mouse (ImmunoResearch Labs.inc)/anti CUL1 (Santa Cruz) for 1 hour/20 hours.
For blocking CD151− T cells were pretreated for 1 hour with 10 μg/ml blocking anti-CD151 antibody (BD pharmingen) or with 10 μg/ml control antibody anti-IgG (ImmunoResearch Labs.inc)/anti KPL1 (Chemicon).
Next, a 100 ng/ml chemokine CCL21 (SLC, PeproTech) stimulation was carried out and the cells were fixed by 3.7% formaldehyde solution (Merck), permeabilized and stained with fluorescein isothiocyanate (FITC)-phalloidin, as was previously described [Flaishon et al., J. Biol. Chem. (2001) 276: 46701-46706]. Cytoskeleton rearrangement was analyzed by flow cytometry.
1×10^7 T cells were incubated in the presence or absence of CCL2 for 10 minutes, followed by stimulation with either activating anti-CD151 (Santa Cruz, 2 μg/ml) or an isotype control antibody IgG rabbit anti mouse (ImmunoResearch Labs.inc, 2 μg/ml) for 1 hour. The cells were then stimulated with CCL21 (100 ng/ml) and actin polymerization was analyzed.
Cells were fixed by 3.7% formaldehyde solution (Merck), and cytoskeleton rearrangement was analyzed by flow cytometry following staining with fluorescein isothiocyanate (FITC)-phalloidin, as was previously described [Flaishon et al. (2001), supra].

On to “CCL2: chemokine, also called Macrophage Chemotactic Protein-1 or MCP-1 (PeproTech), used at picomolar levels, 1 ng/ml”, for which the “β-catenin phosphorylation induced by CD151 activation” value in test [1] is “completely abolished”. Moreover, the “CD151/VLA4 complex (β1 integrin pulled down with CD151)” value is recorded as “no effect” in test [2] (CCR2-/- T cells incubated with CCL2, FIG. 4B) and “disappearance of the CD151/VLA4 complex” in test [2] (control T cells incubated with CCL2, several time periods, FIG. 4A). For the same substance, the “transcription of CD151 (RT-PCR)” value is “no inhibition was observed” in test [3] (CCR2-/- T cells, pM CCL2, FIG. 1D); “downregulated following 2 and 4 hour incubations” in test [3] (control naive T cells, pM CCL2, 1, 2 or 4 hours, FIG. 1C). Further, in test [3] (T cells incubated 2 hours with CCL2), the “differential gene expression of CD151 (DNA chip array)” value was “downregulated”. The “adhesion strengthening after arrest (resistance to detachment)” value in test [4] (continuous/high shear stress) was “failed to remain firmly adhered”. Further, the “LFA-1 activation by surface bound CCL21 (arrest/accumulation on ICAM-1)” value in test [4] (low shear stress) is “minor effect”. For the same substance, the “progression of asthma and adjuvant arthritis” value in test [5] was “attenuated progression of both asthma and adjuvant arthritis”. Further, the “T lymphocyte homing to peripheral lymph nodes” value in test [6] is reported as “inhibit T lymphocyte homing to peripheral lymph nodes”. Besides, the “CD151 cell surface expression” value in test [7] (CCR2-/- T cells, FIG. 1G) is given as “no change was detected”; in test [7] (control T cells, different time periods, FIGS. 1E-F) it was “downregulated CD151 cell surface expression levels”. The “actin polymerization elevation induced by CD151 activation” value is given as “not apparent” in test [8] (CCR2-/- T cells, CCL2 10 minutes before activating anti-CD151, FIG. 4D); “maintained” in test [8] (control T cells, longer CCL2 incubation (20 hours), FIG. 4E); “completely abolished” in test [8] (control T cells, pM CCL2 10 minutes before activating anti-CD151 1 hour, then CCL21, FIG. 4C). Moreover, in test [8] (control T cells, CCL2 1 ng/ml (pM levels) 1 hour, then CCL21 100 ng/ml, FIGS. 1A-B), the CCL21-induced actin polymerization result is “suppressed actin polymerization”.

Source of the values: patent US20120070449A1, “METHODS OF TREATING INFLAMMATION” (Yeda Research And Development Co. Ltd., priority 2009, published 2012).
